# How the values were obtained:
# [1] = test system: Atg7 wild-type (Atg7+/+) mouse embryonic fibroblasts; assay: Annexin V/PI flow cytometry cell death, Atg7+/+ MEFs; type: cell-based; details: 2 μM, 24 h, FIG. 6B
# Procedure: (§1) Cell viability is measured using an annexin V staining kit (BD Biosciences, San Jose, Calif., USA). Briefly, Atg7 wild-type (Atg7+/+ or Atg7-wt) and Atg7 deficient (Atg7−/− or Atg7-ko) mouse embryonic fibroblasts (MEFs) are treated with the 2 μM pomiferin for 24 h. Cells are then harvested and analysed by multiparametric flow cytometry using FITC-Annexin V and Propidium iodide staining (BD Biosciences, San Jose, Calif., USA) according to the manufacturer's instructions. Flow cytometry is then carried out using a FACSCalibur flow cytometer (BD Biosciences, San Jose, Calif., USA). Data acquisition and analysis is performed with CellQuest (BD Biosciences, San Jose, Calif., USA). Data are obtained from three independent experiments.
# [2] = test system: Hep3B (human liver cancer) cells; assay: MTT cytotoxicity assay, Hep3B; type: cell-based; details: 72 h, Hep 3B (Liver), 3 days, read-out: Means of IC50
# Procedure: Pomiferin is dissolved in DMSO at a final concentration of 100 mmol/L and stored at −20° C. Cytotoxicity is assessed using the 3-(4,5-dimethylthiazol-2-yl)-2,5-diphenyltetrazolium bromide assay. 4000-8000 HeLa (human cervical cancer), MCF-7 (human breast cancer), HepG2 and Hep3B (human liver cancer), H1299 and A549 (human lung cancer), LNCap (human prostate cancer) and LLC-1 (mouse Lewis lung carcinoma) cells are seeded on 96-well plates per well. After overnight pre-incubation, the cells are exposed to different concentrations of pomiferin ([…]) for 3 days. Subsequently, 10 μL of MTT reagents is added to each well and incubated at 37° C. for 4 hours followed by the addition of 100 μL solubilization buffer (10% SDS in 0.01 mol/L HCl) and overnight incubation. Absorbance at 585 nm is determined from each well the next day. The percentage of cell viability is calculated using the following formula: Cell viability (%)=Cells number treated/Cells number DMSO control×100. Data are obtained from three independent experiments.
# [3] = test system: caspase-3 deficient (caspase 3KO) mouse embryonic fibroblasts; assay: MTT cytotoxicity assay, caspase 3KO MEFs; type: cell-based; details: Fibroblast, 72 h, 3 days, read-out: Means of IC50
# Procedure: (§2) The test compound of pomiferin is dissolved in DMSO at a final concentration of 100 mmol/L and stored at −20° C. Cytotoxicity is assessed using the 3-(4,5-dimethylthiazol-2-yl)-2,5-diphenyltetrazolium bromide assay as previously described^29. 2500 of caspase wild-type (caspase WT), caspase-3 deficient (caspase 3KO), caspase-7 deficient (caspase 7KO), caspase-3/-7 deficient (caspase 3/7 DKO), caspase-8 deficient (caspase 8KO), Bax-Bak wild-type (Bak-Bak WT) and Bax-Bak double knock out (Bak-Bak DKO) mouse embryonic fibroblasts (MEFs) are seeded on 96-well plates per well. After overnight pre-incubation, the cells are exposed to different concentrations of pomiferin (namely 100, 50, 25, 12.5, 6.25, 3.125, 1.5625, 0.78, 0.39, 0.195, 0.079, 0.039 μmol/L) for 3 days. Subsequently, 10 μL of MTT reagents is added to each well and incubated at 37° C. for 4 hours, followed by the addition of 100 μL solubilization buffer (10% SDS in 0.01 mol/L HCl) and overnight incubation. Absorbance at 585 nm is determined from each well on the following day. The percentage of cell viability is calculated using the following formula: Cell viability (%)=Cells numbertreated/Cells numberDMSO control×100. Data is obtained from three independent experiments.
# [4] = test system: Hep3B, HepG2, H1299, MCF-7, A549 cancer cells and normal human hepatocyte (LO2); assay: Endogenous LC3 puncta immunofluorescence in cancer and normal cells; type: cell-based; details: 10 μM, FIG. 2
# Procedure: The detection of endogenous LC3 puncta formation is conducted using immunofluorescence staining method as described below. In brief, pomiferin-treated cancer cells (Hep3B, HepG2, H1299, MCF-7 and A549) or normal human hepatocyte (LO2) on cover slips are fixed with 4% paraformaldehyde (Sigma) for 20 min at room temperature and then rinsed with PBS. Immerse coverslips in methanol at room temperature for 2 min. After ishing with PBS, the cells are then incubated with anti-LC3 (1:200) in TBST (100 mM Tris HCl, pH 7.5, 150 mM NaCl, 0.05% Tween 20 and 5% BSA) overnight at 4. […] The coverslips are then mounted with FluorSave™ mounting media (Calbiochem, San Diego, Calif., USA) for fluorescence imaging and localization of LC3 autophagosomes are captured under the API Delta Vision Live-cell Imaging System (Applied Precision Inc., GE Healthcare Company, Washington, USA). To quantify autophagy, guidelines are followed to monitor autophagy^20, the percentage of cells with punctuate LC3 immunofluorescence staining is calculated by counting the number of the cells showing the punctuate pattern of LC3 fluorescence (>10 dots/cell) in immunofluorescence positive cells over the total number of cells in the same field. A minimum of 1000 cells from randomly selected fields are scored.
# [5] = test system: AMPK-mTOR signaling in HeLa cancer cells; assay: Western blot of mTOR signaling marker proteins (P-AMPK, P-p70S6K); type: cell-based, human; details: FIG. 3A
# Procedure: HeLa cancer cells treated with indicated time and concentrations of pomiferin are harvested and lysed in RIPA buffer (Cell Signaling). The cell lysates are then resolved by SDS-PAGE. After electrophoresis, the proteins from SDS-PAGE are transferred to nitrocellulose membrane which is then blocked with 5% non-fat dried milk for 60 minutes. The membrane is then incubated with P-p70S6K, p70S6K, P-AMPK, AMPK and actin primary antibodies (1:1000) in TBST overnight at 4° C. respectively. After that, the membrane is further incubated with HRP-conjugated secondary antibodies for 60 minutes. Finally, protein bands are visualized by using the ECL Western Blotting Detection Reagents (Invitrogen).
# [6] = test system: Bax-Bak wild-type MEFs; assay: Annexin V/PI flow cytometry cell death, Bax-Bak wild-type MEFs; type: cell-based, mouse; details: 5 μM, 24 h
# Procedure: as §1, with “Cell death” for “Cell viability”, “Briefly, Bax-Bak” for “Briefly, Atg7”, “wild-type” for “wild-type (Atg7+/+ or Atg7-wt)”, “and Bax-Bak DKO MEFs” for “and Atg7 deficient (Atg7−/− or Atg7-ko) mouse embryonic fibroblasts (MEFs)”, “the 5” for “the 2”
# [7] = test system: caspase-8 deficient (caspase 8KO) mouse embryonic fibroblasts; assay: MTT cytotoxicity assay, caspase 8KO MEFs; type: cell-based; details: Fibroblast, 72 h, 3 days, read-out: Means of IC50
# Procedure: as §2
smiles,measurement,setting,value
CC(C)=CCc1c2c(c3occ(-c4ccc(O)c(O)c4)c(=O)c3c1O)C=CC(C)(C)O2 [pomiferin],cell death (in words),[1],markedly induce cell death
same,IC50,[2],16.3 µM
same,IC50,[3],2.13 µM
same,TRITC-LC3 puncta formation,[4],induces TRITC-LC3 puncta formation in all tested cancer and normal cells
same,p70S6K phosphorylation (mTOR downstream),[5],concomitant reduction
same,phosphorylation of AMPK,[5],activate the phosphorylation of AMPK in a time dependent manner
same,cell death,[6],~40%
same,IC50,[7],4.98 µM
